The values below come from the NIST ThermoML archive (doi:10.1016/j.fluid.2013.06.017).

Structures are written as SMILES. Numbers after ± are expanded uncertainties.

The conditions of the series: Liquid, Closed cell (Static) method.

Regarding `CC(F)F` [1,1-difluoroethane], the vapor or sublimation pressure – broadly, the equilibrium pressure above the liquid or solid – is 148.6 ± 1 kPa (258.15 K), 219.4 ± 1.1 kPa (268.15 K), 314.1 ± 1.1 kPa (278.15 K) and 437.8 ± 1.2 kPa (288.15 K).
`F/C=C/C(F)(F)F` [trans-1,3,3,3-tetrafluoropropene]: the “vapor or sublimation pressure” value (258.15 K) is on record as 120.2 ± 1 kPa, the “vapor or sublimation pressure” value (268.15 K) amounted to 179.3 ± 1 kPa, the “vapor or sublimation pressure” value (278.15 K) is 259.2 ± 1.1 kPa and the “vapor or sublimation pressure” value (288.15 K) came to 364.2 ± 1.1 kPa.
